Legend:
human ES cells [1] = assay: Cell adhesion assay, 1 hour after plating on coated plates; assay type: cell-based
Experimental: The assay was performed as described (Extracellular Matrix Protocols, 2000). Briefly, 96-well plates were coated by extracellular matrix proteins as described above and blocked by O3 medium containing bovine serum albumin. The ES cells were plated at a cell density of 600 cell/mm^2 upon extracellular matrix-coated plates and were left to adhere for either 1 hour or 1 day at the cell incubator. Non-adherent cells were washed away, and adherent cells were fixed for 20 min by 5% glutaraldehyde, stained by 0.1% Crystal Violet.
Briefly, 96-well plates were coated by extracellular matrix proteins as described above and blocked by O3 medium containing bovine serum albumin. The ES cells were plated at cell density of 50,000 cells/cm^2 onto extracellular matrix-coated plates and left to adhere for 1 hour in a cell incubator. After that the plates were washed 3 times with the medium to remove the non-adherent cells, and then the adherent cells were fixed for 20 minutes by 5% glutaraldehyde, stained by 0.1% Crystal Violet. (Kebo Lab, Spanga, Sweden, http://www.kebolab.se). After one hour and 3 washes with water, Crystal Violet was extracted with 10% acetic acid and quantified by measuring optical density at 570 nm. All the experiments were performed in quadruplicate.

OCT4 = assay: FACS analysis for OCT4; assay type: cell-based, human; conditions: after several single cell suspension passages, O3 medium, FIG. 9 and 10
Experimental: OCT4 expression was analyzed as described in Ludwig, T. E. et al. Derivation of human embryonic stem cells in defined conditions. Nat. Biotechnol. 24, 185-187 (2006). Cells were run on FACSCalibur Flow Cytometer (Becton Dickinson). Data were analyzed with CellQuest software (Becton Dickinson).

human ES cells [2] = assay: Cell survival assay, 24 hours (1 day) after plating from single cell suspension; assay type: cell-based; conditions: 10 μM Y-27632, 40,000 cells per 1 cm^2, 24 hours

For “LN-521: protein formed by joining laminin α5, β2 and γ1 chains; human recombinant, produced in HEK293 cells”, the “adhesion of human ES cells after 1 hour” value (human ES cells [1]; O3 medium without any additives, without Y-27632, FIG. 6) was “roughly the same”, the “spreading of the cells after one hour compared with Matrigel or LN-111” value (human ES cells [1]; dissociated hES cells, not shown) was “clearly better” and the “percentage of Oct4 positive (pluripotent) cells compared with Matrigel” value (OCT4) was “much higher percentage”. The “survival of Y-27632 treated cells compared with Matrigel” value (human ES cells [2]) was “survived better”.
